In US6878711B2, “Indole derivatives as PDE5-inhibitors” (Lilly Icos LLC, priority 2000, dated 2005) one finds melting point and IC50 data, which are given here for 6 molecules.

Molecules are shown by their SMILES.

In one series the target is human recombinant PDE5 (Homo sapiens, UniProt O76074). Briefly: Inhibitory effect on cGMP-PDE (one-step assay, 8-[H3]-cGMP).
For the next series, the target named is T1, PDE5 (bovine aorta) (Bos taurus, UniProt Q28156).
T1 construct: from tissue; host or cells: bovine aorta
Briefly: Inhibitory effect on cGMP-PDE, enzyme from bovine aorta. Type of series: biochemical. As to conditions: vs. bovine aorta. The source says: Biophys. Acta, 384, 430 (1975).

Broadly, the melting point is the temperature of the solid-liquid transition. For the molecule `CN1CC(=S)N2[C@H](c3ccc4c(c3)OCO4)c3[nH]c4ccccc4c3C[C@@H]2C1=S`, the melting point is 158 to 162 °C.

The IC50 is the concentration at which inhibition is half-maximal. As for `CN1CCN2[C@H](c3ccc4c(c3)OCO4)c3[nH]c4ccccc4c3C[C@@H]2C1=O` [Example 1, (6R,12aR)-6-Benzo[1,3]dioxol-5-yl-2-methyl-3,4,6,7,12,12a-hexahydro-2H-pyrazino[1′,2′:1,6]pyrido[3,4-b]indole-1-one], the IC50 on human recombinant PDE5 is 0.054 µM.

Regarding `CN1CCN2[C@@H](c3ccc4c(c3)OCO4)c3[nH]c4ccccc4c3C[C@@H]2C1=O` [Example 2, (6S,12aR)-6-Benzo[1,3]dioxol-5-yl-2-methyl-3,4,6,7,12,12a-hexahydro-2H-pyrazino-[1′2′:1,6]pyrido[3,4-b]indol-1-one], the IC50 at human recombinant PDE5 came out at 0.575 µM. On to `CN1CCN2[C@@H](c3ccc4c(c3)OCO4)c3[nH]c4ccccc4c3C[C@H]2C1=O` [Example 3], for which the 50% inhibitory concentration (IC50) on PDE5 (bovine aorta) turned out to be 0.1 µM. On to `O=C1CNC[C@H]2Cc3c([nH]c4ccccc34)[C@@H](c3ccc4c(c3)OCO4)N12` [Example 4], for which the IC50 at human recombinant PDE5 was 0.0023 µM.

`CN1CC(=S)N2[C@H](c3ccc4c(c3)OCO4)c3[nH]c4ccccc4c3C[C@H]2C1=S` [Example 6, (6R,12aS)-6-Benzo[1,3]dioxol-5-yl-2-methyl 2,3,6,7,12,12a-hexahydropyrazino[1′,2′:1,6]pyrido[3,4-b]indole-1,4-dithione] yielded a melting point of 177 to 182 °C.
